This note sets out measurements from PMC9583322, “Vicinal Diaryl-Substituted Isoxazole and Pyrazole Derivatives with In Vitro Growth Inhibitory and In Vivo Antitumor Activity” (ACS Omega, 2022).

One data set concerns MCF7. Briefly: SRB cytotoxicity assay. In kind it is cell-based, human. To be noted: 72 h treatment. How it is done:
(§1) HepG2, FOCUS, Hep3B, Mahlavu, Huh7, Hep40, and PLC-PRF-5 hepatocellular carcinoma cells; MCF-7, MDA-MB-231, MDA-MB-468, SKBR3, and ZR-75 breast cancer cells; and normal-like epithelial MCF-10A breast cells were cultured in low-glucose Dulbecco’s modified Eagle’s medium (DMEM) (Biological Industries-BI) supplemented with 10% fetal bovine serum (FBS) (Gibco/Thermo Fisher Scientific), 2 mM L-Glutamine (Gibco/Thermo Fisher Scientific), 100 Units/mL Penicillin/Streptomycin, and 0.1 mM non-essential amino acid (Gibco/Thermo Fisher Scientific). SNU475 hepatocellular carcinoma cells were maintained in RPMI (Biological Industries-BI) supplemented with 10% fetal bovine serum (FBS) (Gibco/Thermo Fisher Scientific), L-Glutamine (Gibco/Thermo Fisher Scientific), and 100 Units/mL Penicillin/Streptomycin, while ZR-75 breast cancer cells were cultured RPMI (Biological Industries-BI) supplemented with 10% fetal bovine serum (FBS) (Gibco/Thermo Fisher Scientific), 1× sodium pyruvate, and %4.5 glucose. Normal-like MCF-10A breast cells were sustained in DMEM/HAM’S F12 (Hyclone) supplemented with 10% fetal bovine serum (FBS) (Gibco/Thermo Fisher Scientific), EGF (20 ng/mL), Hydrocortisone ([…]), cholera toxin (100 ng/mL), insulin (10 μg/mL), and 100 Units/mL Penicillin/Streptomycin. The cells were cultivated at 37 °C in a humidified incubator under 5% CO2.
(§2) Mahlavu, FOCUS, SNU475 (1000 cell/well in 150 μL/well); Huh7, MCF7 (2500 cell/well in 150 μL/well); HepG2, Hep3B, SKBR3 (3000 cell/well in 150 μL/well); PLC-PRF-5, Hep40 (5000 cell/well in 150 μL/well); MDA-MB-231, MDA-MB-468, MCF10A (6000 cell/well in 150 μL/well); and ZR-75 (7500 cell/well in 150 μL/well) were cultured in 96-well plates and were inoculated in an incubator for 24 hours. The compounds were dissolved in dimethyl sulfoxide (DMSO) (Sigma, St Louis, MO) as a 20 mM stock solution. The treatment of cells with the compounds was done in a concentration range starting from 40 to 2.5 μM. The compounds which were below 2.5 μM were tested in a concentration range from 2.5 to 0.15 μM. End of the 72h compound treatment, the cells were fixed using 10% (v/v) trichloroacetic acid (MERCK) for an hour and washed with ddH2O, and left for air-drying. The fixed plates were stained with 50 μL of sulforhodamine B (SRB) solution (Sigma) at RT for 10 min. To remove unbound SRB dye, acetic acid was used to wash cells three times and left for drying. The protein-bound SRB was solubilized with 10 mM Tris-base (Sigma) and their absorbance was measured with a 96-well plate reader at 515 nm wavelength (ELx800, Biotek). The IC50 values of compounds were calculated in comparison with control group DMSO. Data with R^2 values larger than 0.9 are considered significant.

A further data set has as its system Huh7. Briefly: SRB cytotoxicity assay. It is filed as cell-based, human. To be noted: 72 h treatment. How it is done: as §1, §2
For orientation: The SRB assay estimates cell density from bound dye.

One may read the IC50 as the concentration that gives 50% inhibition. Higher therefore signals a need for much substance. The melting point is the temperature, or range, at which the solid turns liquid.

As for `Cc1onc(-c2ccc(OCc3ccncc3)cc2)c1-c1ccc(Cl)cc1` [compound 33, 4-(4-Chlorophenyl)-5-methyl-3-(4-(pyridin-4-ylmethoxy)phenyl)isoxazole], the melting point lay within 124.2 to 125.8 °C. The same molecule returned an IC50 in the data set with MCF7 (Homo sapiens, MCF7, 72 h) of 14.5 µM. This molecule also came in with an IC50 with Huh7 (Homo sapiens, Huh-7, 72 h) of 11.4 µM.

In the case of `Cc1ccccc1COc1ccc(-c2noc(C)c2-c2ccc(Cl)cc2Cl)cc1` [compound 53, 5-Methyl-4-(2,4-dichlorophenyl)-3-(4-((2-methylbenzyl)oxy)phenyl)isoxazole], the melting point was in the range of 98 to 98.4 °C. The molecule also returned an IC50 in the data set with MCF7 (Homo sapiens, MCF7, 72 h) of 19.2 µM. The molecule also had an IC50 in the data set with Huh7 (Homo sapiens, Huh-7, 72 h) of 8.2 µM.

As for `Cc1ncccc1COc1ccc(-c2noc(C)c2-c2ccc(Cl)cc2)cc1` [compound 35, 4-(4-Chlorophenyl)-5-methyl-3-(4-((2-methylpyridin-3-yl)methoxy)phenyl)isoxazole], the melting point was 107.2 to 108.8 °C. In addition, the IC50 in the data set with MCF7 (Homo sapiens, MCF7, 72 h) came to 6.1 µM. The same molecule returned an IC50 with Huh7 (Homo sapiens, Huh-7, 72 h) of 3.9 µM.

`Cc1ccccc1COc1ccc(-c2noc(C)c2-c2ccc(C#N)cc2)cc1` [compound 48, 5-Methyl-4-(4-cyanophenyl)-3-(4-((2-methylbenzyl)oxy)phenyl)isoxazole] had a melting point of 135.3 to 137.1 °C. Moreover, in the data set on MCF7, the half-maximal inhibitory concentration (IC50) was greater than 20 µM. This molecule yielded an IC50 with MCF7 (Homo sapiens, MCF7, 72 h) of no less than 20 µM. The molecule also registered an IC50 in the data set with Huh7 (Homo sapiens, Huh-7, 72 h) of 6.7 µM.

Molecule `Cc1ccc(-c2c(-c3ccc(OCc4ccccc4C)cc3)noc2C)nc1` [compound 54, 5-Methyl-3-(4-((2-methylbenzyl)oxy)phenyl)-4-(5-methylpyridin-2-yl)isoxazole] displayed a melting point of 121.4 to 122.3 °C. Also, the IC50 in the data set with MCF7 (Homo sapiens, MCF7, 72 h) is greater than 20 µM. This molecule also gave an IC50 in the data set with Huh7 (Homo sapiens, Huh-7, 72 h) of 6.4 µM.

For the molecule `Cc1cccnc1COc1ccc(-c2noc(C)c2-c2ccc(Cl)cc2)cc1` [compound 36, 4-(4-Chlorophenyl)-5-methyl-3-(4-((3-methylpyridin-2-yl)methoxy)phenyl)isoxazole], the melting point lay in the range of 138.7 to 141.2 °C. For the same molecule, in the data set with MCF7, the IC50 was greater than 20 µM. The half-maximal inhibitory concentration (IC50) in the data set with MCF7 (Homo sapiens, MCF7, 72 h) was no less than 20 µM. The molecule also had an IC50 in the data set with Huh7 (Homo sapiens, Huh-7, 72 h) of 9.4 µM.

`Cc1onc(-c2ccc(OCc3ccccc3Cl)cc2)c1-c1ccc(Cl)cc1` [compound 16, 4-(4-Chlorophenyl)-3-(4-((2-chlorobenzyl)oxy)phenyl)-5-methylisoxazole] showed a melting point of 105.2 to 106.4 °C. Further, in the data set with MCF7 (Homo sapiens, MCF7, 72 h), the IC50 was greater than 20 µM. In addition, the IC50 in the data set with Huh7 (Homo sapiens, Huh-7, 72 h) was found to be 20 µM.

`COC(=O)c1cccc(COc2ccc(-c3noc(C)c3-c3ccc(Cl)cc3)cc2)c1` [compound 23, Methyl-3-((4-(4-(4-chlorophenyl)-5-methylisoxazol-3-yl)phenoxy)methyl)benzoate] registered a melting point of 121.5 to 122.8 °C. For the same molecule, the IC50 with MCF7 (Homo sapiens, MCF7, 72 h) came to 13 µM. In addition, the IC50 in the data set on Huh7 (Homo sapiens, Huh-7, 72 h) is greater than 20 µM.

Take “5-Methyl-4-(2,4-difluoromethylphenyl)-3-(4-((2-methylbenzyl)oxy)phenyl)isoxazole [compound 52]”: the IC50 in the data set with MCF7 was greater than 20 µM; in the data set with Huh7 it was 15 µM.

As to `Cc1ccccc1COc1ccc(-c2noc(C)c2-c2ccc(F)cc2)cc1` [compound 45, 5-Methyl-4-(4-fluorophenyl)-3-(4-((2-methylbenzyl)oxy)phenyl)isoxazole], the melting point lay within 119 to 120.5 °C. Besides, in the data set with MCF7 (Homo sapiens, MCF7, 72 h), the IC50 was greater than 20 µM. In the data set on Huh7 (Homo sapiens, Huh-7, 72 h), inhibition was half-maximal at 16.7 µM (IC50).

As to `Cc1cccc(COc2ccc(-c3noc(C)c3-c3ccc(Cl)cc3)cc2)c1C` [compound 30, 4-(4-Chlorophenyl)-3-(4-((2,3-dimethylbenzyl)oxy)phenyl)-5-methylisoxazole], the melting point is 167.2 to 168.5 °C. The IC50 with MCF7 (Homo sapiens, MCF7, 72 h) was greater than 20 µM. The same molecule displayed an IC50 with Huh7 (Homo sapiens, Huh-7, 72 h) of 15.3 µM.

`Cc1ccccc1COc1ccc(-c2noc(C)c2-c2cccc(C(F)(F)F)c2)cc1` [compound 49, 5-Methyl-4-(3-trifluoromethylphenyl)-3-(4-((2-methylbenzyl)oxy)phenyl)isoxazole] displayed a melting point of 120.7 to 122.4 °C. The molecule further displayed an IC50 in the data set on MCF7 (Homo sapiens, MCF7, 72 h) greater than 20 µM. The same molecule displayed an IC50 in the data set with Huh7 (Homo sapiens, Huh-7, 72 h) of 19 µM.

The molecule `Cc1onc(-c2ccc(OCc3ccc4ccccc4n3)cc2)c1-c1ccc(Cl)cc1` [compound 34, 4-(4-Chlorophenyl)-5-methyl-3-(4-(quinolin-2-ylmethoxy)phenyl)isoxazole] had a melting point of 164.7 to 165.8 °C. Moreover, in the data set with MCF7 (Homo sapiens, MCF7, 72 h), the 50% inhibitory concentration (IC50) is greater than 20 µM. In the data set with Huh7 (Homo sapiens, Huh-7, 72 h), the IC50 was determined as 9.1 µM.

In the case of `Cc1cc(COc2ccc(-c3noc(C)c3-c3ccc(Cl)cc3)cc2)n(C)n1` [compound 40, 4-(4-Chlorophenyl)-3-(4-((1,3-dimethyl-1H-pyrazol-5-yl)methoxy)phenyl)-5-methylisoxazole], the melting point was in the range of 156.4 to 157.9 °C. Moreover, the IC50 in the data set on MCF7 (Homo sapiens, MCF7, 72 h) came out at 12.2 µM. In the data set on Huh7 (Homo sapiens, Huh-7, 72 h), half-maximal inhibition (IC50) required 0.9 µM.

For `Cc1onc(-c2ccc(OCc3ccc(C(=O)O)cc3)cc2)c1-c1ccc(Cl)cc1` [compound 29, 4-((4-(4-(4-Chlorophenyl)-5-methylisoxazol-3-yl)phenoxy)methyl)benzoic acid], the melting point was in the range of 210.8 to 212.4 °C. Also, inhibition in the data set with MCF7 (Homo sapiens, MCF7, 72 h) was half-maximal at 15 µM (IC50). The molecule further showed an IC50 in the data set on Huh7 (Homo sapiens, Huh-7, 72 h) of 8.6 µM.

`COc1ccc(-c2c(-c3ccc(OCc4ccccc4C)cc3)noc2C)cc1` [compound 46, 5-Methyl-4-(4-methoxyphenyl)-3-(4-((2-methylbenzyl)oxy)phenyl)isoxazole]: the melting point is 121.3 to 122.7 °C. In the data set with MCF7 (Homo sapiens, MCF7, 72 h), this molecule yielded an IC50 of 12.8 µM. This molecule showed an IC50 in the data set with Huh7 (Homo sapiens, Huh-7, 72 h) of 8.9 µM.

`Cc1ccccc1CNc1ccc(-c2noc(C)c2-c2ccc(Cl)cc2)cc1` [compound 59, 4-(4-(4-Chlorophenyl)-5-methylisoxazol-3-yl)-N-(2-methylbenzyl)aniline] showed a melting point of 134.9 to 137 °C. Moreover, the IC50 in the data set with MCF7 was greater than 20 µM. Also, the IC50 in the data set on MCF7 (Homo sapiens, MCF7, 72 h) was no less than 20 µM. The molecule also yielded an IC50 in the data set with Huh7 (Homo sapiens, Huh-7, 72 h) of 4 µM.

On to `Cc1onc(-c2ccc(OCc3ccc(Cl)nc3)cc2)c1-c1ccc(Cl)cc1` [compound 38, 4-(4-Chlorophenyl)-3-(4-((6-chloropyridin-3-yl)methoxy)phenyl)-5-methylisoxazole], for which the melting point fell in the range of 168.2 to 170.8 °C. In addition, the IC50 in the data set with MCF7 (Homo sapiens, MCF7, 72 h) is greater than 20 µM. This molecule registered an IC50 with Huh7 (Homo sapiens, Huh-7, 72 h) greater than 20 µM.

`Cc1onc(-c2ccc(OCc3ccccc3C#N)cc2)c1-c1ccc(Cl)cc1` [compound 17, 2-((4-(4-(4-Chlorophenyl)-5-methylisoxazol-3-yl)phenoxy)methyl)benzonitrile]: the melting point lay within 111.2 to 112.5 °C. This molecule also gave a half-inhibitory concentration (IC50) in the data set on MCF7 (Homo sapiens, MCF7, 72 h) greater than 20 µM. In addition, the IC50 in the data set with Huh7 (Homo sapiens, Huh-7, 72 h) is greater than 20 µM.

`Cc1ccccc1COc1ccc(-c2noc(C)c2-c2ccc(Cl)cc2)cc1F` [compound 57, 4-(4-Chlorophenyl)-3-(3-fluoro-4-((2-methylbenzyl)oxy)phenyl)-5-methylisoxazole] yielded a melting point of 108 to 110.2 °C. The molecule also came in with an IC50 with MCF7 (Homo sapiens, MCF7, 72 h) greater than 20 µM. Moreover, in the data set with Huh7 (Homo sapiens, Huh-7, 72 h), 9.8 µM corresponded to half-maximal inhibition (IC50).

In turn, `Cc1onc(-c2ccc(OCc3ccccc3C(F)(F)F)cc2)c1-c1ccc(Cl)cc1` [compound 18, 4-(4-Chlorophenyl)-5-methyl-3-(4-((2-(trifluoromethyl)benzyl)oxy)phenyl)isoxazole] registered a melting point of 132.8 to 134.4 °C. The molecule further displayed an IC50 in the data set with MCF7 (Homo sapiens, MCF7, 72 h) greater than 20 µM. The IC50 with Huh7 (Homo sapiens, Huh-7, 72 h) was 14.2 µM.

On to `Cc1cccc(COc2ccc(-c3noc(C)c3-c3ccc(Cl)cc3)cc2)n1` [compound 37, 4-(4-Chlorophenyl)-5-methyl-3-(4-((6-methylpyridin-2-yl)methoxy)phenyl)isoxazole], for which the melting point lay within 126.1 to 127.5 °C. In addition, in the data set with MCF7 (Homo sapiens, MCF7, 72 h), the IC50 amounted to 12.9 µM. The molecule further yielded an IC50 in the data set on Huh7 (Homo sapiens, Huh-7, 72 h) of 6.9 µM.

In the case of `Cc1onc(-c2ccc(OCc3ccccc3OC(F)F)cc2)c1-c1ccc(Cl)cc1` [compound 14, 4-(4-Chlorophenyl)-3-(4-((2-(difluoromethoxy)benzyl)oxy)phenyl)-5-methylisoxazole], the melting point lay within 95.5 to 96.9 °C. The same molecule registered a 50% inhibitory concentration (IC50) in the data set with MCF7 (Homo sapiens, MCF7, 72 h) of 8.5 µM. This molecule came in with a concentration for half-maximal inhibition (IC50) in the data set on Huh7 (Homo sapiens, Huh-7, 72 h) of 13.8 µM.

Turning to “5-Methyl-4-(3-fluoromethylphenyl)-3-(4-((2-methylbenzyl)oxy)phenyl)isoxazole [compound 50]”, the results for the IC50 in the data set with MCF7 and with Huh7 were greater than 20 µM and 15 µM, respectively.
